Test results published in patent publication US20110206781A1, “METHOD TO MODULATE HEMATOPOIETIC STEM CELL GROWTH” (priority 2008, published 2011).

Tests used:
[1] = test system: nos1; assay: blastula transplantation of cmyb:GFP donor cells into lmo2:dsRed recipients; format: in vivo, zebrafish; conditions: 36 hpf, p=0.0065
Description: Blastula Transplantation: cmyb: GFP embryos were injected with nos1 or control MO at the one-cell stage. At the blastula stage, 100 cells were removed from the donor embryo and transplanted into stage-matched recipients. Embryos were analyzed by confocal microscopy at 36 hpf.
(§1) Morpholino injection: Morpholino antisense oligonucleotides (MO; GENETOOLS, LLC, Philomath, Oreg.) designed against the ATG and exonl splice sites of nos1 (5′-[…] [SEQ. ID NO:1]; 5′-[…] [SEQ ID NO:2), nos2 (5′-[…] [SEQ ID NO:3]; 5′-[…] [SEQ ID NO:4]), and mismatched controls were injected into one-cell-stage embryos.

[2] = test system: runx1/cmyb+ HSCs in the zebrafish AGM; assay: runx1/cmyb in situ hybridization for HSC formation in zebrafish embryos at 36 hpf; format: in vivo; parameters: effect on HSC formation at 36 hpf when treatment occurred before the onset of heartbeat: dose or concentration left out as unconfirmed
Description: In Situ Hybridizataion: Paraformaldehyde-fixed embryos were processed for in situ hybridization according to standard zebrafish protocols. Such protocols are available on-line through the The Zebrafish Model Organism Database. The following RNA probes were used: runx1, cmyb, flk1, ephrinB2, flt4, globin, mpo, mhc, and foxa3. Changes in expression compared to WT controls are reported as the number altered/number scored per genotype/treatment (North et al., 2007); a minimum of three independent experiments was conducted per analysis.
Chemical Exposure: Zebrafish embryos were exposed to chemicals at the doses indicated; dimethyl sulfoxide (DMSO) carrier content was 0.1%. For evaluation of HSC development, exposure ranged from early somitogenesis (5+ somites) until 36 hpf, unless otherwise noted.
as §1

[3] = test system: HSCs; assay: in vivo confocal imaging of HSC number in cmyb:GFP; lmo2:dsRed embryos; parameters: species or system zebrafish; conditions: lmo2:dsRed reporter fish, p<0.001, n=5
Description: Confocal Microscopy: Fluorescent reporter embryos were exposed to blood flow modulators (10 μM, unless otherwise noted) as indicated, live embedded in 1% agarose, and imaged with a Zeiss LSM510 Meta confocal microscope at 36 hpf (North et al., 2007) or a Perkin Elmer UltaVIEW VoX spinning disk confocal microscope.

In the case of “nos1 ATG MO: morpholino antisense oligonucleotide against the ATG site of nos1, 5′-ACGCTGGGCTCTGATTCCTGCATTG, SEQ ID NO:1 (all phosphorodiamidate morpholino (PMO))”, the “donor cell contribution to GFP+ HSC formation in transplanted embryos” value [1] is reported as “none”.
With N=C(N)NCCC[C@H](N)C(=O)O [L-arg, L-arginine] the “effect on the sih hematopoietic defect (runx1/cmyb), in words” value ([2]; sih−/− embryos, 36 hpf) was “rescued the sih hematopoietic defect” and the “effect on HSCs (runx1/cmyb), in words” value ([2]; wild-type embryos, 36 hpf, bradykinin 10 μM) was “increased HSCs”.
With CC(=O)N[C@H](C(=O)O)C(C)(C)SN=O [SNAP, S-nitroso-N-acetyl-penicillamine] the “effect on HSC formation at 36 hpf when treatment occurred before the onset of heartbeat” value ([2]; exposure 10 somites-23 hpf) was “capable of enhancing HSC number” and the “HSC number by confocal microscopy” value [3] was “increased HSC numbers”.
